Tests used:
[1] = test system: soluble epoxide hydrolase (sEH); test: Fluorescent assay for mouse and human soluble epoxide hydrolase (CMNPC substrate); format: biochemical
Source text: Recombinant mouse sEH (MsEH) and human sEH (HsEH) were produced in a baculovirus expression system as previously reported. Grant et al., J. Biol. Chem., 268:17628-17633 (1993); Beetham et al., Arch. Biochem. Biophys., 305:197-201 (1993). The expressed proteins were purified from cell lysate by affinity chromatography. Wixtrom et al., Anal. Biochem., 169:71-80 (1988). Protein concentration was quantified using the Pierce BCA assay using bovine serum albumin as the calibrating standard. The preparations were at least 97% pure as judged by SDS-PAGE and scanning densitometry. They contained no detectable esterase or glutathione transferase activity which can interfere with the assay. The assay was also evaluated with similar results in crude cell lysates or homogenate of tissues. The IC50s for each inhibitor were according to the following procedure: Cyano(2-methoxynaphthalen-6-yl)methyl (3-phenyloxiran-2-yl)methyl carbonate (CMNPC; Jones P. D. et. al.; Analytical Biochemistry 2005; 343: pp. 66-75) Bis/Tris HCl 25 mM pH 7.0 containing 0.1 mg/mL of BSA (buffer A) Mother solution of enzyme in buffer A (Mouse sEH at 6 μg/mL and Human sEH at 5 μg/mL). Inhibitor dissolved in DMSO at the appropriate concentration. In a black 96 well plate, fill all the wells with 150 μL of buffer A. Add 2 μL of DMSO in well A2 and A3, and then add 2 μL of inhibitor solution in A1 and A4 through A12. Add 150 μL of buffer A in row A, then mix several time and transfer 150 μL to row B. Repeat this operation up to row H. The 150 μL removed from row H go to the trash. Add 20 μL of buffer A in column 1 and 2, then add 20 μL of enzyme solution to column 3 to 12. Incubate the plate for 5 minutes in the plate reader at 30° C. During incubation prepare the working solution of substrate by mixing 3.68 mL of buffer A (4×0.920 mL) with 266 μL (2×133 μL) of substrate solution). At t=0, add 30 μL of working substrate solution with multi-channel pipette labeled “Briggs 303” and start the reading ([S]final: 5 μM). Read with ex: 330 nm (20 nm) and em: 465 nm (20 nm) every 30 second for 10 minutes. The velocities are used to analyze and calculate the IC50s.

Row | Compound | melting point | % Inh ([1]; Conc 1000 nM) | % Inh ([1]; Conc 200 nM) | % Inh ([1]; Conc 2000 nM)
1 | CC(=O)NC1CCC(NC(=O)NC23CC4CC(CC(C4)C2)C3)CC1 (stereo not shown) [Compound 2, N-(4-(3-(adamantan-1-yl)ureido)cyclohexyl)acetamide] | > 300 °C | 98% | – | –
2 | CS(=O)(=O)NC1CCC(NC(=O)Nc2ccc(C(F)(F)F)cc2)CC1 (stereo not shown) [Compound 6, N-(4-(3-(4-(trifluoromethyl)phenyl)ureido)cyclohexyl)methanesulfonamide] | 237 to 239 °C | – | 99% | –
3 | CC(=O)NC1CCC(NC(=O)Nc2ccc(C(F)(F)F)cc2)CC1 (stereo not shown) [Compound 4, N-(4-(3-(4-(trifluoromethyl)phenyl)ureido)cyclohexyl)acetamide] | – | – | 93% | –
4 | CS(=O)(=O)NC1CCC(NC(=O)NC23CC4CC(CC(C4)C2)C3)CC1 (stereo not shown) [Compound 5, N-(4-(3-(adamantan-1-yl)ureido)cyclohexyl)methanesulfonamide] | > 300 °C | – | 96% | –
5 | O=C(NC1CCC(NS(=O)(=O)c2cccc(C(F)(F)F)c2)CC1)NC12CC3CC(CC(C3)C1)C2 (stereo not shown) [Compound 1, N-(4-(3-(adamantan-1-yl)ureido)cyclohexyl)-3-(trifluoromethyl)benzenesulfonamide] | 310 to 312 °C | – | 98% | –
6 | O=C(Nc1ccc(F)cc1)NC1CCC(NS(=O)(=O)c2cccc(C(F)(F)F)c2)CC1 (stereo not shown) [Compound 3, N-(4-(3-(4-fluorophenyl)ureido)cyclohexyl)-3-(trifluoromethyl)benzenesulfonamide] | 296 to 299 °C | – | 98% | –
7 | CS(=O)(=O)NC1CCC(NC(=O)c2ccc(F)cc2)CC1 (stereo not shown) [Compound 7, 4-fluoro-N-(4-(methylsulfonamido)cyclohexyl)benzamide] | 269 to 270 °C | – | – | 44%

— US20090082456A1, “SOLUBLE EPOXIDE HYDROLASE INHIBITORS” (Arete Therapeutics, Inc., priority 2007, published 2009)
